From ChEMBL document CHEMBL3885861, “Open TG-GATES”

Organism: Rattus norvegicus
Test: Open TG-GATES - Regimen: Daily Repeat
Format: toxicity, organism-based, Sprague-Dawley
Design: regimen Daily Repeat, gender Male, age 6 weeks
Settings: in vivo, iv, route intravenous injection; for APTT / Bas / Eos / Fbg / Ht / Lym / MCH / MCHC / MCV / Mono / Neu / PT / Plat / RBC / Ret / WBC / Hb: tissue Blood; for KIDNEY_L / KIDNEY_R / KIDNEY_TOTAL: tissue Kidney; for LIVER: tissue Liver
[1] = 0 mg/kg, 72 h, dose level Control, time 3 day
[2] = 0 mg/kg, 72 h, tissue Plasma, dose level Control, time 3 day
[3] = 0 mg/kg, […], dose level Control, time 7 day
[4] = 0 mg/kg, […], dose level Control, time 14 day
[5] = 0 mg/kg, […], dose level Control, time 28 day
[6] = 0 mg/kg, […], tissue Plasma, dose level Control, time 7 day
[7] = 0 mg/kg, […], tissue Plasma, dose level Control, time 14 day
[8] = 0 mg/kg, […], tissue Plasma, dose level Control, time 28 day
[9] = 10 mg/kg, 72 h, dose level Low, time 3 day
[10] = 10 mg/kg, 72 h, tissue Plasma, dose level Low, time 3 day
[11] = 10 mg/kg, […], dose level Low, time 7 day
[12] = 10 mg/kg, […], dose level Low, time 14 day
[13] = 10 mg/kg, […], dose level Low, time 28 day
[14] = 10 mg/kg, […], tissue Plasma, dose level Low, time 7 day
[15] = 10 mg/kg, […], tissue Plasma, dose level Low, time 14 day
[16] = 10 mg/kg, […], tissue Plasma, dose level Low, time 28 day

Sequence: GENTAMICIN
- TERMINAL_BW [1]: 231.1 g
- APTT [1]: 23.2 s
- Bas [1]: 0%
- Eos [1]: 1%
- Fbg [1]: 286.6 mg/dL
- Ht [1]: 37.6%
- Lym [1]: 72.8%
- MCH [1]: 21.1 pg
- MCHC [1]: 34.9%
- MCV [1]: 60.6 fL
- Mono [1]: 3.2%
- Neu [1]: 21.6%
- PT [1]: 16.9 s
- Plat [1]: 119.1 x10_4/uL
- RBC [1]: 621 x10_4/ul
- Ret [1]: 5.8%
- WBC [1]: 105.4 x10_2/uL
- KIDNEY_L [1]: 1.1 g
- KIDNEY_R [1]: 1 g
- KIDNEY_TOTAL [1]: 2.1 g
- ALP [2]: 1838 IU/L
- ALT [2]: 41.8 IU/L
- AST [2]: 70.2 IU/L
- BUN [2]: 16.2 mg/dL
- CRE [2]: 0.2 mg/dL
- DBIL [2]: 0 mg/dL
- IP [2]: 6.9 mg/dL
- K [2]: 4.5 meq/L
- LDH [2]: 157.2 IU/L
- Na [2]: 139.6 meq/L
- PL [2]: 147.8 mg/dL
- RALB [2]: 3 g/dL
- TBIL [2]: 0.006 mg/dL
- TC [2]: 72.8 mg/dL
- TG [2]: 107.6 mg/dL
- TP [2]: 5.5 g/dL
- gamma-GTP [2]: 1.6 IU/L
- TERMINAL_BW [3]: 261.2 g
- TERMINAL_BW [4]: 307.6 g
- TERMINAL_BW [5]: 392.7 g
- APTT [3]: 22.1 s
- Bas [3]: 0%
- Eos [3]: 0.8%
- Fbg [3]: 273.2 mg/dL
- Ht [3]: 37.1%
- Lym [3]: 80%
- MCH [3]: 20.6 pg
- MCV [3]: 58.5 fL
- Mono [3]: 3%
- Neu [3]: 15.5%
- PT [3]: 16 s
- Plat [3]: 118.1 x10_4/uL
- RBC [3]: 636.2 x10_4/ul
- Ret [3]: 4.1%
- WBC [3]: 124.9 x10_2/uL
- APTT [4]: 23 s
- Bas [4]: 0%
- Eos [4]: 0.8%
- Fbg [4]: 267.8 mg/dL
- Ht [4]: 40.2%
- Lym [4]: 78%
- MCH [4]: 21 pg
- MCHC [4]: 35.7%
- MCV [4]: 58.8 fL
- Mono [4]: 2.6%
- Neu [4]: 17.6%
- PT [4]: 16.2 s
- Plat [4]: 123.5 x10_4/uL
- RBC [4]: 684.8 x10_4/ul
- Ret [4]: 4%
- WBC [4]: 103.9 x10_2/uL
- APTT [5]: 24.6 s
- Bas [5]: 0%
- Eos [5]: 1.2%
- Fbg [5]: 290.2 mg/dL
- Hb [5]: 15.4 g/dL
- Ht [5]: 43.3%
- Lym [5]: 83%
- MCHC [5]: 35.5%
- MCV [5]: 57.6 fL
- Mono [5]: 2%
- Plat [5]: 102.2 x10_4/uL
- RBC [5]: 752 x10_4/ul
- Ret [5]: 2.3%
- WBC [5]: 107.5 x10_2/uL
- KIDNEY_L [3]: 1.1 g
- KIDNEY_R [3]: 1.1 g
- KIDNEY_TOTAL [3]: 2.2 g
- KIDNEY_L [4]: 1.2 g
- KIDNEY_R [4]: 1.2 g
- KIDNEY_TOTAL [4]: 2.4 g
- KIDNEY_L [5]: 1.4 g
- KIDNEY_R [5]: 1.3 g
- KIDNEY_TOTAL [5]: 2.7 g
- LIVER [5]: 15.2 g
- ALP [6]: 1702.5 IU/L
- ALT [6]: 40.5 IU/L
- AST [6]: 72.2 IU/L
- BUN [6]: 17 mg/dL
- CRE [6]: 0.2 mg/dL
- DBIL [6]: 0 mg/dL
- GLC [6]: 214 mg/dL
- IP [6]: 6.8 mg/dL
- K [6]: 4.4 meq/L
- LDH [6]: 207.2 IU/L
- PL [6]: 135.2 mg/dL
- RALB [6]: 2.9 g/dL
- TBIL [6]: 0.005 mg/dL
- TC [6]: 68.5 mg/dL
- TG [6]: 94.5 mg/dL
- TP [6]: 5.4 g/dL
- gamma-GTP [6]: 1.5 IU/L
- ALP [7]: 1249.2 IU/L
- ALT [7]: 33.4 IU/L
- AST [7]: 61.6 IU/L
- CRE [7]: 0.2 mg/dL
- DBIL [7]: 0 mg/dL
- GLC [7]: 198.6 mg/dL
- IP [7]: 7 mg/dL
- K [7]: 4.7 meq/L
- PL [7]: 140.8 mg/dL
- RALB [7]: 3 g/dL
- TBIL [7]: 0.002 mg/dL
- TC [7]: 63.2 mg/dL
- TG [7]: 154 mg/dL
- TP [7]: 5.6 g/dL
- gamma-GTP [7]: 2 IU/L
- ALP [8]: 976 IU/L
- ALT [8]: 34.8 IU/L
- AST [8]: 58.8 IU/L
- BUN [8]: 18.2 mg/dL
- CRE [8]: 0.2 mg/dL
- DBIL [8]: 0 mg/dL
- GLC [8]: 190.8 mg/dL
- IP [8]: 6.5 mg/dL
- K [8]: 4.1 meq/L
- LDH [8]: 115.4 IU/L
- PL [8]: 135.6 mg/dL
- RALB [8]: 3 g/dL
- TBIL [8]: 0.004 mg/dL
- TG [8]: 101 mg/dL
- TP [8]: 6 g/dL
- gamma-GTP [8]: 2.4 IU/L
- TERMINAL_BW [9]: 228.4 g
- Bas [9]: 0%
- Eos [9]: 0.8%
- Fbg [9]: 300.8 mg/dL
- Ht [9]: 38.3%
- Lym [9]: 71.8%
- MCHC [9]: 34.8%
- MCV [9]: 59.9 fL
- Mono [9]: 3.8%
- Neu [9]: 22%
- PT [9]: 17 s
- Plat [9]: 124.4 x10_4/uL
- RBC [9]: 640 x10_4/ul
- Ret [9]: 5.2%
- WBC [9]: 102 x10_2/uL
- KIDNEY_L [9]: 1 g
- KIDNEY_R [9]: 1 g
- KIDNEY_TOTAL [9]: 2 g
- LIVER [9]: 10.2 g
- AST [10]: 71.8 IU/L
- BUN [10]: 18.2 mg/dL
- CRE [10]: 0.2 mg/dL
- DBIL [10]: 0 mg/dL
- GLC [10]: 174.6 mg/dL
- IP [10]: 6.6 mg/dL
- K [10]: 4.5 meq/L
- LDH [10]: 157.2 IU/L
- PL [10]: 131.2 mg/dL
- RALB [10]: 3 g/dL
- TBIL [10]: 0.012 mg/dL
- TC [10]: 66.4 mg/dL
- TG [10]: 84.6 mg/dL
- TP [10]: 5.5 g/dL
- gamma-GTP [10]: 1.4 IU/L
- TERMINAL_BW [11]: 260.4 g
- TERMINAL_BW [12]: 320 g
- TERMINAL_BW [13]: 376.9 g
- APTT [11]: 22.1 s
- Bas [11]: 0%
- Eos [11]: 1.4%
- Fbg [11]: 290 mg/dL
- Hb [11]: 13.7 g/dL
- Ht [11]: 40%
- Lym [11]: 75.8%
- MCHC [11]: 34.4%
- MCV [11]: 60.6 fL
- Mono [11]: 2.6%
- Plat [11]: 122 x10_4/uL
- RBC [11]: 660.6 x10_4/ul
- Ret [11]: 4.7%
- WBC [11]: 106.3 x10_2/uL
- APTT [12]: 22.5 s
- Bas [12]: 0%
- Eos [12]: 1%
- Fbg [12]: 298.2 mg/dL
- Hb [12]: 14.1 g/dL
- Ht [12]: 39.7%
- Lym [12]: 75.8%
- MCH [12]: 20.6 pg
- MCHC [12]: 35.5%
- MCV [12]: 58.2 fL
- Mono [12]: 2.8%
- Neu [12]: 18.8%
- PT [12]: 16.5 s
- Plat [12]: 124.8 x10_4/uL
- RBC [12]: 683 x10_4/ul
- Ret [12]: 4.4%
- WBC [12]: 118.2 x10_2/uL
- APTT [13]: 25.6 s
- Bas [13]: 0%
- Eos [13]: 1.6%
- Fbg [13]: 309.2 mg/dL
- Ht [13]: 43.2%
- MCHC [13]: 36.1%
- MCV [13]: 53.9 fL
- Mono [13]: 2%
- Neu [13]: 16.4%
- PT [13]: 16.5 s
- Plat [13]: 112.8 x10_4/uL
- RBC [13]: 803.4 x10_4/ul
- Ret [13]: 1.9%
- WBC [13]: 114.2 x10_2/uL
- KIDNEY_L [11]: 1 g
- KIDNEY_R [11]: 1 g
- KIDNEY_TOTAL [11]: 2.1 g
- KIDNEY_L [12]: 1.3 g
- KIDNEY_R [12]: 1.3 g
- KIDNEY_TOTAL [12]: 2.6 g
- KIDNEY_L [13]: 1.4 g
- KIDNEY_R [13]: 1.4 g
- KIDNEY_TOTAL [13]: 2.7 g
- LIVER [12]: 13.6 g
- LIVER [13]: 13.7 g
- ALP [14]: 1411.6 IU/L
- ALT [14]: 40.2 IU/L
- AST [14]: 73 IU/L
- BUN [14]: 18.2 mg/dL
- CRE [14]: 0.2 mg/dL
- DBIL [14]: 0 mg/dL
- GLC [14]: 188.6 mg/dL
- IP [14]: 6.5 mg/dL
- K [14]: 4.3 meq/L
- LDH [14]: 203.6 IU/L
- PL [14]: 146.8 mg/dL
- RALB [14]: 3 g/dL
- TBIL [14]: 0.008 mg/dL
- TC [14]: 70.4 mg/dL
- TG [14]: 121.8 mg/dL
- TP [14]: 5.5 g/dL
- gamma-GTP [14]: 1.2 IU/L
- ALP [15]: 1519.6 IU/L
- ALT [15]: 37 IU/L
- AST [15]: 65.4 IU/L
- CRE [15]: 0.2 mg/dL
- DBIL [15]: 0 mg/dL
- GLC [15]: 186.6 mg/dL
- IP [15]: 6.3 mg/dL
- K [15]: 4.4 meq/L
- LDH [15]: 131.2 IU/L
- RALB [15]: 3.1 g/dL
- TBIL [15]: 0.006 mg/dL
- TC [15]: 61.8 mg/dL
- TG [15]: 152 mg/dL
- TP [15]: 5.8 g/dL
- gamma-GTP [15]: 1.8 IU/L
- AST [16]: 66 IU/L
- CRE [16]: 0.2 mg/dL
- DBIL [16]: 0 mg/dL
- GLC [16]: 176 mg/dL
- IP [16]: 5.8 mg/dL
- K [16]: 4.1 meq/L
- LDH [16]: 137.2 IU/L
- PL [16]: 132 mg/dL
- RALB [16]: 3.1 g/dL
- TBIL [16]: 0.004 mg/dL
- TC [16]: 67.4 mg/dL
- TG [16]: 113.6 mg/dL
- TP [16]: 6.1 g/dL
